The nature of series [1]: in vitro. Also on record: species or system CCD841, HEK293. To be noted: human, hb2 cells, read-out: HB-2 Cells Viability (%).
Series [2] can be described thus: in vitro. The arrangement: species or system HB2, CCD841. To be noted: human, hek293 cells.
Series [3] can be described thus: in vitro. The arrangement: species or system HB2, HEK293. To be noted: human, ccd841 cells.
The next series addresses T1, OTUB2 (OTUB2A) (Homo sapiens, UniProt Q96DC9).
T1 construct: full length residues 1-234, E. coli BL21(DE3)-R3, His tag removed by TEV, construct 27312 Da
T1 sequence (Q96DC9 1-234): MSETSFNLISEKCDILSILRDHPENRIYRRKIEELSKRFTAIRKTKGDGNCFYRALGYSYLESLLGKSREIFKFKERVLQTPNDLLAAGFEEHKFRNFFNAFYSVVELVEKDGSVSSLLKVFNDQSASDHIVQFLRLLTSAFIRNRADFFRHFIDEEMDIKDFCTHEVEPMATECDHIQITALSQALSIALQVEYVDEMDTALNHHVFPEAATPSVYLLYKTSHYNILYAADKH
The arrangement: Intact protein LC/MS covalent labelling, fragments in pools of five, 200 uM each, 4 °C. To be noted: 24 h, 4 °C, pool of five; 200 µM; covalent.

Another series addresses T2, NUDT7 (Homo sapiens, UniProt P0C024).
T2 construct: residues 14-235, E. coli, pNIC28-Bsa4, N-terminal His6 tag removed by TEV, construct 26672 Da
The arrangement: Intact protein LC/MS covalent labelling, fragments in pools of five, 200 uM each, 4 °C. To be noted: 24 h, 4 °C, pool of five; 200 µM; covalent.

Another series addresses T3, BSA (Bos taurus, UniProt P02769).
T3 construct: gene ALB
Also on record: Intact protein LC/MS covalent labelling, fragments in pools of five, 200 uM each, 4 °C. The conditions noted are these: 24 h, 4 °C, pool of five; 200 µM; covalent.

A further series addresses T4, PCAF (Homo sapiens, UniProt Q92831).
T4 construct: gene KAT2B
The arrangement: Intact protein LC/MS covalent labelling, fragments in pools of five, 200 uM each, 4 °C. To be noted: 24 h, 4 °C, pool of five; 200 µM; covalent.

The target in the next series is T5, NNMT (hNNMT) (Homo sapiens, UniProt P40261).
T5 construct: wild type, N-terminal His6 tag kept (no cleavage described), E. coli, construct 31248 Da
T5 sequence (P40261 1-264): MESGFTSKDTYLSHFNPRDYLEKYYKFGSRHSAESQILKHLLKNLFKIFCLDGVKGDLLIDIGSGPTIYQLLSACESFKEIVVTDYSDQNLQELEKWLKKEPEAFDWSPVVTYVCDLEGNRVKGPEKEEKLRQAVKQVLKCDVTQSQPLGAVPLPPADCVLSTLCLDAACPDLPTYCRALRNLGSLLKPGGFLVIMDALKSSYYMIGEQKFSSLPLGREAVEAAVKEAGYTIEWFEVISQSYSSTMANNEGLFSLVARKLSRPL
Also on record: Intact protein LC/MS covalent labelling, fragments in pools of five, 200 uM each, 4 °C. The conditions noted are these: 24 h, 4 °C, pool of five; 200 µM; covalent.

Read-outs that look alike come from different tables or passages of the source.

T2 sequence (P0C024 14-235): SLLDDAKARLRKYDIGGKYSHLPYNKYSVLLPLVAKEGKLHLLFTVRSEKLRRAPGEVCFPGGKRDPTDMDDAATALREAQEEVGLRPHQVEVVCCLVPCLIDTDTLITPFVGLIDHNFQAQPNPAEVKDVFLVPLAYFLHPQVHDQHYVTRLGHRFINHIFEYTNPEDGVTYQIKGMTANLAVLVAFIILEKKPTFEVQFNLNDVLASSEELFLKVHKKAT
T3 sequence (P02769 whole entry): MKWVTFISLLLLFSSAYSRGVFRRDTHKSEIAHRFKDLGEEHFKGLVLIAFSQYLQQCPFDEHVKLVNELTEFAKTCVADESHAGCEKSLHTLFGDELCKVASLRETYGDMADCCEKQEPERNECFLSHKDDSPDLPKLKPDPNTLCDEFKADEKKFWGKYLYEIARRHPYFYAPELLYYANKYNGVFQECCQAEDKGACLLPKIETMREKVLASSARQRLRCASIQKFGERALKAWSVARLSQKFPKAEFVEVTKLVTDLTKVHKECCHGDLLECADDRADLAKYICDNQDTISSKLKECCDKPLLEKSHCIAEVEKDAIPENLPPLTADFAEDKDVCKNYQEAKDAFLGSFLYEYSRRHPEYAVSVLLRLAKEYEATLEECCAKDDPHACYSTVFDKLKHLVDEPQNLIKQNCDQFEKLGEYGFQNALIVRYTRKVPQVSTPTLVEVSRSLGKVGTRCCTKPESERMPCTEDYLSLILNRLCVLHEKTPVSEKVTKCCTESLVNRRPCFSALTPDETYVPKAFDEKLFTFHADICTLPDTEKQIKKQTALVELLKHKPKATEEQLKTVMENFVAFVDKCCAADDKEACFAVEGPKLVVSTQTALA
T4 sequence (Q92831 whole entry): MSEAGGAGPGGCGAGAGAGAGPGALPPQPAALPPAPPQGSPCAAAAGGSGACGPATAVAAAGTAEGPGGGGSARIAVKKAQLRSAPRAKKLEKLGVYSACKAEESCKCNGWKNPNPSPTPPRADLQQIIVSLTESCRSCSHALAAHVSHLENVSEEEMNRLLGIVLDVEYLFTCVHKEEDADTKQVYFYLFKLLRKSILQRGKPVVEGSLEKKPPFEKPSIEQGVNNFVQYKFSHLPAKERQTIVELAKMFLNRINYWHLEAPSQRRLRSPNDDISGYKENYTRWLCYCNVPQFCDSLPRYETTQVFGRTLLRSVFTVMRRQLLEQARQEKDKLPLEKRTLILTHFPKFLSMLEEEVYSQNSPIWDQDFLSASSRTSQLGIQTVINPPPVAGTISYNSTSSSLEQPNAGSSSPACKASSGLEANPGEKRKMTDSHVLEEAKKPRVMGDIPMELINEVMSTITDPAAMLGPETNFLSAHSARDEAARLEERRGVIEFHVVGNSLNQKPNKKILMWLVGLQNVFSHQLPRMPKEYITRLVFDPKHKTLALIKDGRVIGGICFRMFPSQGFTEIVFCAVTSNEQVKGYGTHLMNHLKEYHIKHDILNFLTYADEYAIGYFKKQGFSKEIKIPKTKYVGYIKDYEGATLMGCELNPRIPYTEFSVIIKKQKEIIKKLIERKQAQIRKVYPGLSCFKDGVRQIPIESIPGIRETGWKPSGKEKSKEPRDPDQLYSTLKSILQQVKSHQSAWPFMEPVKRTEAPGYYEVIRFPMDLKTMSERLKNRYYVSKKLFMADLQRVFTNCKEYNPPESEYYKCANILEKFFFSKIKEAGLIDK

As for `CN(C)C(=O)CN1CCN(C(=O)CCl)CC1.Cl` [PCM-0102304], the viability (commonly a read-out of living cells in per cent, often relative to untreated cells) at 48 h, 10 µM in the series “in vitro [1]” was 107%; in “in vitro [2]”, 128%; in “in vitro [3]”, 114%. The same molecule yielded an OTUB2 at OTUB2 (OTUB2A) of 0. The molecule also had an NUDT7 on NUDT7 of 0. For the same molecule, on BSA, the BSA was 0. The PCAF on PCAF is given as 0. On NNMT (hNNMT), this molecule gave an NNMT of 0.
`CN1C(=O)c2ccc(NC(=O)CCl)cc2C1=O` [PCM-0102309]: the viability at 48 h, 10 µM came to 52.5% in the series “in vitro [1]”, 67.2% in “in vitro [2]” and 61.2% in the series “in vitro [3]”. Further, the OTUB2 on OTUB2 (OTUB2A) was found to be 0.19. At NUDT7, this molecule had an NUDT7 of 0.12. This molecule also registered a BSA on BSA of 0. Besides, the PCAF at PCAF was 0. On NNMT (hNNMT), the NNMT is reported as 0.
`CC(=O)NNC(=O)CCl` [PCM-0102310]: the viability at 48 h, 10 µM stood at 96.1% in “in vitro [1]”, 84.1% in “in vitro [2]” and 90.3% in “in vitro [3]”. This molecule returned an OTUB2 on OTUB2 (OTUB2A) of 0.18. The molecule also yielded an NUDT7 at NUDT7 of 0. The molecule further showed a BSA at BSA of 0. At PCAF, this molecule displayed a PCAF of 0. For the same molecule, at NNMT (hNNMT), the NNMT is reported as 0.
Regarding `O=C(CCl)Nc1cc2ccccc2cc1C(=O)O` [PCM-0102311], the viability at 48 h, 10 µM is 105% in “in vitro [1]”, 109% in the series “in vitro [2]” and 100% in the series “in vitro [3]”. In addition, the OTUB2 at OTUB2 (OTUB2A) is 0.1. The same molecule gave an NUDT7 on NUDT7 of 0.17. The BSA at BSA was determined as 0. For the same molecule, at PCAF, the PCAF is 0. Further, on NNMT (hNNMT), the NNMT is reported as 0.2.
For the molecule `NC(=O)c1ccsc1NC(=O)CCl` [PCM-0102314], the viability at 48 h, 10 µM came to 58.5% in “in vitro [1]”, 33.7% in “in vitro [2]” and 74.4% in the series “in vitro [3]”. In addition, the OTUB2 at OTUB2 (OTUB2A) was 0. Besides, the NUDT7 on NUDT7 was found to be 0.18. In addition, the BSA at BSA amounted to 0. Besides, the PCAF on PCAF is listed as 0. Further, at NNMT (hNNMT), the NNMT was determined as 0.32.
Take `CC1(C)C2CCC1(C)C(NC(=O)CCl)C2` (stereo not drawn) [PCM-0102315]: the viability at 48 h, 10 µM was 84.4% in “in vitro [1]”, 75.9% in the series “in vitro [2]” and 95% in “in vitro [3]”. The molecule also gave an OTUB2 at OTUB2 (OTUB2A) of 0. Moreover, the NUDT7 at NUDT7 is 0. Moreover, the BSA at BSA stood at 0.12. The molecule also came in with a PCAF at PCAF of 0. On NNMT (hNNMT), this molecule displayed an NNMT of 0.
Take `COC(=O)c1c(NC(=O)CCl)sc(C)c1C` [PCM-0102322]: the viability at 48 h, 10 µM amounted to 62.5% in “in vitro [1]”, 33.3% in “in vitro [2]” and 80% in the series “in vitro [3]”. The OTUB2 at OTUB2 (OTUB2A) is 0. At NUDT7, this molecule yielded an NUDT7 of 0.4. Further, the BSA on BSA was 0. This molecule also had a PCAF at PCAF of 0. Besides, the NNMT at NNMT (hNNMT) came out at 0.18.
In the case of `COc1ccc2nc(NC(=O)CCl)sc2c1` [PCM-0102330], the viability at 48 h, 10 µM turned out to be 32.7% in the series “in vitro [1]”, 39.7% in the series “in vitro [2]” and 44.6% in “in vitro [3]”. The OTUB2 on OTUB2 (OTUB2A) turned out to be 0. The molecule also came in with an NUDT7 on NUDT7 of 1. The molecule also yielded a BSA at BSA of 0. Also, the PCAF at PCAF worked out at 0. At NNMT (hNNMT), this molecule came in with an NNMT of 0.71.
As to `O=C(CCl)Nc1ccnn1C1CCCC1` [PCM-0102336], the viability at 48 h, 10 µM came to 41.3% in “in vitro [1]”, 7.7% in “in vitro [2]” and 60.4% in “in vitro [3]”. This molecule returned an OTUB2 on OTUB2 (OTUB2A) of 0.19. The NUDT7 on NUDT7 is 0. The same molecule showed a BSA on BSA of 0. Moreover, the PCAF on PCAF turned out to be 0. At NNMT (hNNMT), this molecule showed an NNMT of 0.
In the case of `Cc1oc(NC(=O)CCl)c(C#N)c1C` [PCM-0102337], the results for the viability at 48 h, 10 µM in the series “in vitro [1]”, in the series “in vitro [2]” and in “in vitro [3]” were 56.5%, 82.9% and 56.4%, respectively. Moreover, the OTUB2 on OTUB2 (OTUB2A) amounted to 0.45. The NUDT7 at NUDT7 is 0. This molecule also yielded a BSA on BSA of 0. The PCAF on PCAF is on record as 0. Besides, the NNMT on NNMT (hNNMT) was determined as 0.53.
For `Cc1ccc(NC(=O)CCl)cc1C` [PCM-0102339], the figures for the viability at 48 h, 10 µM in “in vitro [1]”, in “in vitro [2]” and in the series “in vitro [3]” were 5.2%, 1.5% and 34.9%, respectively. Moreover, at OTUB2 (OTUB2A), the OTUB2 amounted to 0.82. This molecule returned an NUDT7 at NUDT7 of 0.18. At BSA, this molecule returned a BSA of 0. Moreover, the PCAF on PCAF worked out at 0. In addition, the NNMT on NNMT (hNNMT) came out at 0.7.
As to `Cc1cccc(CN2CCN(C(=O)CCl)CC2)c1` [PCM-0102340], the figures for the viability at 48 h, 10 µM in “in vitro [1]”, in the series “in vitro [2]” and in “in vitro [3]” were 19.6%, 15.3% and 42.4%, respectively. The OTUB2 at OTUB2 (OTUB2A) was determined as 0.17. The molecule also had an NUDT7 on NUDT7 of 0. On BSA, this molecule yielded a BSA of 0. On PCAF, this molecule gave a PCAF of 0. On NNMT (hNNMT), this molecule gave an NNMT of 0.26.
With `CC(C)(C)c1ccc(C(=O)NNC(=O)CCl)cc1` [PCM-0102355], the viability at 48 h, 10 µM in the series “in vitro [1]” worked out at 48.1%; in “in vitro [2]”, 53.7%; in “in vitro [3]”, 44.3%. This molecule also gave an OTUB2 on OTUB2 (OTUB2A) of 0.66. The same molecule registered an NUDT7 on NUDT7 of 0. On BSA, the BSA was determined as 0. The PCAF at PCAF amounted to 0. In addition, the NNMT on NNMT (hNNMT) was found to be 0.
On to `CN(C)C(=O)CNC(=O)CCl` [PCM-0102365], for which the values for the viability at 48 h, 10 µM in “in vitro [1]”, in the series “in vitro [2]” and in the series “in vitro [3]” were 103%, 95.6% and 100%, respectively. In addition, the OTUB2 at OTUB2 (OTUB2A) was 0. At NUDT7, this molecule yielded an NUDT7 of 0. Further, the BSA at BSA worked out at 0. Further, the PCAF at PCAF amounted to 0. The NNMT at NNMT (hNNMT) was determined as 0.
`O=C(CCl)Nc1cc([N+](=O)[O-])ccc1Cl` [PCM-0102366]: the figures for the viability at 48 h, 10 µM in “in vitro [1]”, in “in vitro [2]” and in “in vitro [3]” were 1.3%, 2.6% and 4.3%, respectively. This molecule also returned an OTUB2 on OTUB2 (OTUB2A) of 0.27. Further, the NUDT7 at NUDT7 was 0.2. The same molecule showed a BSA on BSA of 0. For the same molecule, the PCAF on PCAF turned out to be 0. Besides, the NNMT at NNMT (hNNMT) is on record as 0.51.
Regarding `COc1ccc(Cl)cc1NC(=O)CCl` [PCM-0102370], the viability at 48 h, 10 µM in the series “in vitro [1]” was 3.7%; in “in vitro [2]”, 3.3%; in “in vitro [3]” it was 34.6%. At OTUB2 (OTUB2A), this molecule had an OTUB2 of 0.18. In addition, the NUDT7 at NUDT7 amounted to 0.23. The molecule further returned a BSA at BSA of 0. The PCAF on PCAF came out at 0. At NNMT (hNNMT), this molecule came in with an NNMT of 0.
Consider `O=C(CCl)N(c1ccccc1)C1C=CS(=O)(=O)C1` (stereo not drawn) [PCM-0102372], for which the viability at 48 h, 10 µM in the series “in vitro [1]” is 24.1%; in “in vitro [2]”, 11.2%; in the series “in vitro [3]”, 31%. At OTUB2 (OTUB2A), this molecule registered an OTUB2 of 0. This molecule also displayed an NUDT7 at NUDT7 of 0.28. The same molecule yielded a BSA on BSA of 0. For the same molecule, on PCAF, the PCAF is 0. This molecule also returned an NNMT on NNMT (hNNMT) of 0.28.
In the case of `Cl.O=C(CCl)N1CCN(c2ccccc2F)CC1` [PCM-0102373], the values for the viability at 48 h, 10 µM in the series “in vitro [1]”, in “in vitro [2]” and in the series “in vitro [3]” were 55.8%, 64.3% and 79.7%, respectively. On OTUB2 (OTUB2A), this molecule had an OTUB2 of 0. In addition, at NUDT7, the NUDT7 is recorded as 0. Further, the BSA at BSA worked out at 0. The same molecule showed a PCAF at PCAF of 0. The molecule also returned an NNMT at NNMT (hNNMT) of 0.

The values are drawn from publication PMC6556873, “Rapid Covalent-Probe Discovery by Electrophile-Fragment Screening” (Journal of the American Chemical Society, 2019).
